Test systems include 786-0 renal; HL-60(TB) leukemia; HOP-62 NSCLC; MDA-MB-435; NCI-H226 lung; NCI/ADR-RES ovarian; OVCAR-5 ovarian; PC-3 prostate; SN12C renal; TK-10 renal; HCC-2998 colon; UACC-62 melanoma.
Assay in all cases: NCI tumour cell line growth inhibition, 48 h

Several values for one entry are separate records, joined by “and”; a condition that tells them apart may be missing. Equal values may be shown once.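 Growth conditions: 96-well plates. Treatment: test compound, 48 hours, 5 concentrations. Analysis: linear interpolation between bracketing concentrations; unreached endpoints set to highest concentration. The concentration for 50% growth inhibition is given as GI50. TGI: concentration producing complete growth inhibition.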

On to `COC1OC(CO)C(O)C(OC(=O)c2cc(O)c(O)c(O)c2)C1OC(=O)c1cc(O)c(O)c(O)c1` (configuration not stated), for which the TGI in the experiment on 786-0 renal, with HL-60(TB) leukemia, with HOP-62 NSCLC, with MDA-MB-435, with NCI-H226 lung and in the experiment on NCI/ADR-RES ovarian was more than 100 µM in each case. The TGI with OVCAR-5 ovarian, with PC-3 prostate, in the experiment on SN12C renal and in the experiment with TK-10 renal was more than 100 µM in each case.

On to `CC(=O)Nc1ccc2c(C)c3c4ccccc4n(C)c3nc2n1`, for which the TGI in the experiment with 786-0 renal was 35.3 µM; in the experiment on HCC-2998 colon it was 30.9 µM; with HL-60(TB) leukemia, 41.2 µM; in the experiment on HOP-62 NSCLC, 94.8 µM; with MDA-MB-435 it was 45.7 µM; with NCI-H226 lung, more than 100 µM. Further, the TGI in the experiment with NCI/ADR-RES ovarian is more than 100 µM; in the experiment with OVCAR-5 ovarian, 51.6 µM; with PC-3 prostate it was more than 100 µM; in the experiment with SN12C renal, 43.3 µM; with TK-10 renal, 94.8 µM; in the experiment with UACC-62 melanoma it was 69 µM.

Turning to `CC(=O)c1ccc2c(c1)oc(=O)n2CCN1CCCCC1`, the TGI in the experiment on 786-0 renal, in the experiment on HL-60(TB) leukemia, with HOP-62 NSCLC, in the experiment on MDA-MB-435, with NCI-H226 lung and in the experiment with NCI/ADR-RES ovarian was more than 100 µM throughout. Further, the TGI in the experiment on OVCAR-5 ovarian, in the experiment with PC-3 prostate, with SN12C renal, in the experiment with TK-10 renal and with UACC-62 melanoma was more than 100 µM each time.

With `O=C(Cc1ccccc1)c1ccc2[nH]c(=O)oc2c1`, the TGI in the experiment on 786-0 renal is more than 100 µM; in the experiment with HL-60(TB) leukemia it was more than 100 µM; in the experiment with HOP-62 NSCLC, more than 100 µM; in the experiment on MDA-MB-435, more than 100 µM; with NCI-H226 lung, 63.2 µM; with NCI/ADR-RES ovarian, 79 µM. Besides, the TGI in the experiment with OVCAR-5 ovarian, in the experiment on PC-3 prostate, in the experiment on SN12C renal, in the experiment with TK-10 renal and in the experiment on UACC-62 melanoma was more than 100 µM in each case.

For `O=c1cc(-c2cccc(OC(F)(F)F)c2)[nH]c2cc3c(cc12)OCO3`, the TGI is 0.75 µM in the experiment on 786-0 renal; 0.157 µM in the experiment with HCC-2998 colon; 0.0315 µM in the experiment on HL-60(TB) leukemia; more than 47.8 µM in the experiment on HOP-62 NSCLC; 0.0367 µM with MDA-MB-435; 9.16 µM with NCI-H226 lung. Also, the TGI in the experiment on NCI/ADR-RES ovarian was 0.236 µM; in the experiment on OVCAR-5 ovarian, more than 100 µM; with PC-3 prostate, more than 100 µM; in the experiment with SN12C renal, more than 100 µM; with TK-10 renal, more than 100 µM.

Turning to `NC1=NC(OCC2(CO)CCC2)C=C(NCC2(CO)CCC2)N1` (configuration not stated), the TGI in the experiment with 786-0 renal, with HCC-2998 colon, in the experiment on HL-60(TB) leukemia, in the experiment with HOP-62 NSCLC, with MDA-MB-435 and with NCI-H226 lung was more than 100 µM each time. In addition, the TGI with NCI/ADR-RES ovarian, with OVCAR-5 ovarian, in the experiment on PC-3 prostate, in the experiment with SN12C renal and with UACC-62 melanoma was more than 100 µM in each case.

Consider `O=C1CCC2SC1CCC2=O`, for which the TGI in the experiment on 786-0 renal, with HCC-2998 colon, with HL-60(TB) leukemia, with HOP-62 NSCLC, in the experiment with MDA-MB-435 and in the experiment on NCI-H226 lung was more than 100 µM throughout. The TGI with NCI/ADR-RES ovarian, with OVCAR-5 ovarian, in the experiment with PC-3 prostate, with SN12C renal and with TK-10 renal was more than 100 µM throughout.

For `CC1(C)OCC(C2OC(N3O[C@H](CI)C[C@@H]3c3ccccc3)C3OC(C)(C)OC23)O1` (some centres not stated), the TGI in the experiment with 786-0 renal, in the experiment with HCC-2998 colon, with HL-60(TB) leukemia, in the experiment on HOP-62 NSCLC, with MDA-MB-435 and in the experiment on NCI/ADR-RES ovarian was more than 100 µM each time. The TGI with OVCAR-5 ovarian, with PC-3 prostate, in the experiment on SN12C renal, in the experiment with TK-10 renal and with UACC-62 melanoma was more than 100 µM in each case.

Take `C=C(C)[C@@H]1CC[C@]2(C(=O)O)CC[C@]3(C)[C@H](CC[C@@H]4[C@@]5(C)CC[C@H](C(=O)/C=C/c6ccc(O)cc6)C(C)(C)[C@@H]5CC[C@]43C)[C@@H]12`: the TGI is more than 100 µM in the experiment with 786-0 renal; 11.4 µM in the experiment with HCC-2998 colon; 12.7 µM with HL-60(TB) leukemia; 27.8 µM with HOP-62 NSCLC; 24.4 µM in the experiment on MDA-MB-435; 29.3 µM in the experiment with NCI/ADR-RES ovarian. Moreover, the TGI in the experiment on OVCAR-5 ovarian turned out to be 23.7 µM; in the experiment on PC-3 prostate, 19 µM; in the experiment on SN12C renal it was 10.4 µM; with TK-10 renal, 20.9 µM; in the experiment on UACC-62 melanoma, 30 µM.

In the case of `Cn1c2nc3ccccc3c-2cc2ccccc21`, the TGI is more than 100 µM in the experiment with 786-0 renal; 17.6 µM with HCC-2998 colon; 8.22 µM and 17 µM with HL-60(TB) leukemia; > 46.4 µM and 19 µM with MDA-MB-435; 19.3 µM and 31.5 µM in the experiment on NCI-H226 lung; 20.2 µM and > 100 µM in the experiment on NCI/ADR-RES ovarian. Besides, the TGI in the experiment with OVCAR-5 ovarian is 36.9 µM and 40.9 µM; in the experiment with PC-3 prostate it was > 45.9 µM and 23.6 µM; with SN12C renal, 36.3 µM and 34.9 µM; with TK-10 renal, 70.3 µM and > 100 µM; in the experiment with UACC-62 melanoma it was 8.85 µM and 20.8 µM. Besides, the GI50 in the experiment with NCI-H226 lung was 3.46 µM and 11.2 µM; in the experiment on NCI/ADR-RES ovarian, 2.76 µM and 12.1 µM; with OVCAR-5 ovarian, 4.12 µM and 11.4 µM; with SN12C renal, 3.14 µM and 6.46 µM; in the experiment with TK-10 renal, 7.63 µM and 31 µM; in the experiment with UACC-62 melanoma, 3.05 µM and 8.55 µM.

Take `COC(=N)C12C(N)=NC(OC)(OC)C1(C#N)C21C(=O)N(c2ccccc2)N=C1C` (configuration not stated): the TGI with 786-0 renal, in the experiment with HCC-2998 colon, with HL-60(TB) leukemia, in the experiment on HOP-62 NSCLC, with MDA-MB-435 and with NCI-H226 lung was more than 100 µM throughout. The TGI with NCI/ADR-RES ovarian, in the experiment with OVCAR-5 ovarian, with PC-3 prostate, in the experiment with SN12C renal and with UACC-62 melanoma was more than 100 µM in each case.

For the compound `CCOC(=O)c1c(NC(=O)Nc2ccccc2)c(C(N)=O)c2n1CCCCC2`, the TGI in the experiment with 786-0 renal, in the experiment on HCC-2998 colon, in the experiment with HL-60(TB) leukemia, in the experiment on HOP-62 NSCLC, in the experiment with MDA-MB-435 and in the experiment with NCI-H226 lung was more than 100 µM in each case. In addition, the TGI in the experiment with NCI/ADR-RES ovarian, with PC-3 prostate, with TK-10 renal and with UACC-62 melanoma was more than 100 µM each time.

For the compound `CCCCCc1c2nc(c(CCCCC)c3ccc([nH]3)c(CCCCC)c3ccc([nH]3)c(CCCCC)c3nc1C=C3)C=C2`, the TGI in the experiment on 786-0 renal, with HCC-2998 colon, in the experiment with HL-60(TB) leukemia, with HOP-62 NSCLC, with MDA-MB-435 and in the experiment with NCI/ADR-RES ovarian was more than 100 µM throughout. For the same compound, the TGI in the experiment with OVCAR-5 ovarian, with PC-3 prostate, in the experiment with SN12C renal, in the experiment on TK-10 renal and in the experiment on UACC-62 melanoma was more than 100 µM throughout.

As to `Cc1sc2nc3n(c(=O)c2c1C)N=C(c1ccc(Cl)cc1)CS3`, the TGI with 786-0 renal, with HCC-2998 colon, in the experiment on HL-60(TB) leukemia, in the experiment on HOP-62 NSCLC, with MDA-MB-435 and in the experiment with NCI-H226 lung was more than 100 µM in each case. Further, the TGI in the experiment on NCI/ADR-RES ovarian, in the experiment on OVCAR-5 ovarian, in the experiment on PC-3 prostate, with SN12C renal and in the experiment with UACC-62 melanoma was more than 100 µM in each case.

Turning to `COC(=O)C1(O)c2ccccc2N=C2C(=O)c3ccccc3N21` (configuration not stated), the TGI is more than 100 µM in the experiment with 786-0 renal; more than 100 µM with HCC-2998 colon; more than 100 µM in the experiment on HL-60(TB) leukemia; more than 100 µM in the experiment on HOP-62 NSCLC; 26.3 µM in the experiment on MDA-MB-435; more than 100 µM in the experiment with NCI-H226 lung. Besides, the TGI in the experiment with NCI/ADR-RES ovarian, in the experiment with OVCAR-5 ovarian, in the experiment with PC-3 prostate, in the experiment with SN12C renal and in the experiment with TK-10 renal was more than 100 µM each time.

Turning to `CC1N(C)C(=O)OC12CCN(CCCC(=O)c1ccc(F)cc1)CC2` (configuration not stated), the TGI with 786-0 renal, with HL-60(TB) leukemia, with HOP-62 NSCLC, in the experiment on MDA-MB-435, with NCI-H226 lung and in the experiment on NCI/ADR-RES ovarian was more than 100 µM in each case. Moreover, the TGI in the experiment on OVCAR-5 ovarian, in the experiment on PC-3 prostate, in the experiment on SN12C renal, in the experiment on TK-10 renal and in the experiment with UACC-62 melanoma was more than 100 µM throughout.

With `S=C(Nc1cccc(Cl)c1)Nc1ccccn1`, the TGI with 786-0 renal, with HL-60(TB) leukemia, in the experiment on HOP-62 NSCLC, in the experiment with MDA-MB-435, in the experiment on NCI-H226 lung and in the experiment with NCI/ADR-RES ovarian was more than 100 µM each time. Moreover, the TGI with OVCAR-5 ovarian, in the experiment on PC-3 prostate, with SN12C renal, in the experiment with TK-10 renal and with UACC-62 melanoma was more than 100 µM each time.

Regarding `CCOC(=O)c1nc2ccc(C(F)(F)F)cc2nc1Oc1ccc(F)cc1`, the TGI with 786-0 renal, in the experiment on HCC-2998 colon, with HL-60(TB) leukemia, in the experiment on HOP-62 NSCLC, in the experiment on MDA-MB-435 and with NCI-H226 lung was more than 100 µM each time. Also, the TGI in the experiment with NCI/ADR-RES ovarian, in the experiment with PC-3 prostate, with TK-10 renal and in the experiment on UACC-62 melanoma was more than 100 µM throughout.

Source of the values: PubChem BioAssay (NCI).
